From US20240350471A1, “PHARMACEUTICAL COMPOSITION FOR PREVENTING OR TREATING ATTENTION DEFICIT/HYPERACTIVITY DISORDER” (DANKOOK UNIVERSITY CHEONAN CAMPUS INDUSTRY ACADEMIC …, priority 2021, published 2024)

Test system: Git1 hetero type (+/−) mice
Test: Open field test in Git1 hetero type (+/−) ADHD model mice treated with SNAP5114
Type: in vivo
Settings: SNAP5114 I.P. 50 ug/kg for 7 days prior to the experiment, movement measured for 10 minutes
Experimental: Git1 gene-deficient hetero (+/−) mice were prepared as an animal model with attention deficit/hyperactivity disorder (ADHD). Wild-type mice and GIT1 gene-deficient knock-out type (KO type) mice were crossed to obtain GIT1 gene-deficient hetero type. After making mating cages for among the obtained hetero type mice, genotyping was performed to isolate the hetero type mice. SNAP5114 was administered intraperitoneally (I.P.) at a concentration of 50 ug/kg for 7 days prior to the experiment. SNAP5114 was dissolved in 10% DMSO and then used by dissolving in 90% saline just before the experiment. Open field tests were performed to evaluate behavioral morphology and, in order to determine the characteristics of tonic GABA in the striatum, a representative brain region that controls hyperactivity, immunohistochemistry and electrophysiological measurements (patch clamp recording) were performed. Considering that changes in the amount of GABA associated with astrocytes in ADHD model mice are related to the transport protein that transports GABA into the astrocytes, behavioral experiments were conducted by treating the SNAP5114, an inhibitor of GABA transporter-3 (GAT-3). […] The mice were placed in the center of an open field test cage (30×30×30 cm), and its movement was measured for 10 minutes. The measured videos were analyzed for locomotor activity through ANYmaze.

With `COc1ccc(C(OCCN2CCC[C@H](C(=O)O)C2)(c2ccc(OC)cc2)c2ccc(OC)cc2)cc1` [SNAP5114, (S)-1-(2-(tris(4-methoxyphenyl)methoxy)ethyl)piperidine-3-carboxylic acid] the “hyperactivity (distance of movement, locomotor activity) in open field test” value was “hyperactivity was found to be ameliorated to the level of WT”.
